According to patent publication US12729368B2, “Methods and compositions for generating oligodendrocyte progenitor cells” (Trailhead Biosystems Inc., priority 2022, dated 2026):
Where “and” joins values, the source holds several entries; their conditions need not be identical. Equal entries are not always repeated.

Tests used:
[1] = system: human pluripotent stem cells; experiment: HD-DoE #2: 13-factor model, differentiation toward anterior neuroectoderm, gene expression; format: cell-based; settings: dynamic profiling analysis, 13-factor model
Description: To further enhance the conditions for oligodendrocyte differentiation from pluripotency, we performed an additional HD-DoE experiment. We obtained additional gene regulatory models that were used for preparation of a differentiation protocol. The basis of this was a 13-factor HD-DoE experiment with focus on initiation of differentiation of cells toward anterior neuroectoderm. In this model, we focused on expression of FEZF2 and OTX2.
As shown in the results summarized in FIG. 4, the model was optimized for highest expression of OTX2 at 12755.9. According to the model of high expression of OTX2, seven effectors had positive contribution including MK2206, PD0325901, CHIR99021, LDN193189, Go6983, PD173074 and BLU9931 with highest factor contribution of 22.2 for MK2206 and lowest factor contribution of 1.7 for PD173074 and BLU9931.
As shown in the results summarized in FIG. 5, the model was optimized for highest expression of FEZF2 at 4466. When the model was optimized for maximum expression level of FEZF2, three effectors including LDN193189 with factor contribution of 19.5, PD0325901 with factor contribution of 14.6 and MK2206 with factor contribution of 12.3 were common with previous condition and three new effectors including purmorphamine-500 nM, XAV939 and SC79 were introduced.
As shown in the results summarized in FIG. 6, to fine-tune the recipe and find the optimum combination of factors for high expression of both OTX2 and FEZF2, dynamic profiling analysis was done. […] Therefore, these two factors were added to the optimized culture recipe.

pre-OPCs [2] = experiment: HD-DoE 12-factor model for stage 2 (version 1), 3 days on stage 1 pre-OPCs; format: cell-based, human; settings: for factor contribution: optimized for maximum expression of OLIG2 at 1841.6
In short: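 Cells grown first in stage 1 medium were treated for 3 days with combinations of 8 or 12 factors, including FGF, TGF-b, WNT, RA, AKT, SHH, mTOR and PKC pathway modulators. Gene expression was modelled and maximized for OLIG2, with NKX2-2, SOX10, OLIG1 and PDGFRa tracked by dynamic profile analysis.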

pre-OPCs [3] = experiment: HD-DoE second 12-factor model for stage 2 (Purmorphamine with TTNPB, Biotin, Insulin etc.); format: cell-based, human; settings: optimized for OLIG2 at 3299.4; positive impact
Experimental: (§1) To gain more information about the effect of Purmorphamine on differentiation of pre-OPCs to a more committed cell population, we tested this factor in two other models. In a 12-factor model, we included Purmorphamine, FGF2, AGN193109 and CHIR99021 along with 8 new inputs including TTNPB, Biotin, Insulin, propionate, DBZ, Yhhu3792, LDN193189 and Y-27632. […] In another 12-factor model, Purmorphamine was tested along with A 8301, CHIR99021, Dexamethasone, T3+T4, PD0325901, ZM336372, DBZ, BMP7, PD173074, SANT-1 and PDGF-AA.

stage 1 pre-OPCs = experiment: HD-DoE third 12-factor model for stage 2 (Purmorphamine with A 8301, Dexamethasone etc.); format: cell-based, human; settings: optimized for OLIG2 at 644.6; positive impact
Experimental: as §1

OPCs [4] = experiment: HD-DoE 8-factor model for stage 4 on OPCs; format: cell-based, human; settings: optimized for maximal expression of CNP at 1339; positive
Experimental: (§2) To engineer the recipe of stage 4 of differentiation, 48 or 96 different combinations of effectors generated using Design-of-Experiments compression through D-optimality were robotically prepared. The effector combinations were prepared in a basal media and were subsequently added to the cells, which were treated with the stage 1, stage 2 and stage 3 differentiation media as described in the earlier examples to generate OPCs. […] Solutions within the tested space could then be explored to address desirability.

OPCs [5] = experiment: HD-DoE 12-factor model for stage 4 on OPCs, 6 days in culture; format: cell-based, human; settings: optimized for PLP1 at 3600; negative impact
Experimental: as §2, with “desirability. […] Benarroch (2009) Neurology 72:1779-1785; Shi et al. (2019) Exp Ther Med, 18:1258-1266).” for “desirability.”

[6] = system: cells cultured in stage 1 and stage 2 differentiation media; experiment: Two further HD-DoE models optimized for SOX10 (IGF-1, FGF-2, AGN193109); format: cell-based, human; settings: two other models optimized for SOX10
Description: According to literature, proteins such as FGF-2, IGF-1, PDGF-AA and NT-3 play an important role in oligodendrocyte differentiation (Goldman and Kuypers (2015) Development 142:3983-95). In the first model, FGF-2 had positive regulatory impact only on the expression level of SOX10 and IGF-1 on PDGFRa. Therefore, to further understand the impact of IGF-1 and FGF-2 on differentiation of cells and confirm their positive role, we included these factors in two other models and optimized the models for maximum expression of SOX10. This gene is one of the main transcription factors of oligodendrocytes, along with OLIG2 and NKX2-2 that has shown the potential to commit the stem cells to oligodendrocytes in reprogramming efforts (Wang et al, (2014) Proc Natl Arad Sri USA 111:E2885-94; García-León et al. (2018) Stem Cell Reports 10:655-672).

Row | Compound | effect on expression of FEZF2 [1] | impact on expression level of OTX2 [1] | effect on expression of SOX10 (pre-OPCs [2]; dynamic profile, model maximized for OLIG2) | factor contribution (pre-OPCs [2]; negative impact) | factor contribution (pre-OPCs [3]) | factor contribution (stage 1 pre-OPCs) | factor contribution (OPCs [4]) | factor contribution (OPCs [5]) | factor contribution (pre-OPCs [2]; positive regulatory effect) | impact on the expression level of SOX10 [6]
1 | c1ccc2c(Oc3nc(Nc4ccc(N5CCOCC5)cc4)c4ncn(C5CCCCC5)c4n3)cccc2c1 [Purmorphamine] | significant positive effects | no negative impact | positively regulate | 7.2 | 13 and 13.03 | 16.9 | 10 | 10 | – | –
2 | FGF2: FGF pathway activator, an FGFR agonist | – | – | – | – | – | – | – | – | 12.9 | positive impact
